Reference: patent US5464829A, “Cephalosporin derivatives” (Meiji Seika Kaisha Ltd., priority 1992, dated 1995)
In brackets after ≈: the same amount, converted by molar mass.

What was measured:
Assay in all cases: Minimum inhibitory concentration (MIC), serial dilution technique
Type in all cases: cell-based
K. pneumoniae PCI602 = conditions: Klebsiella pneumoniae, 10^6 CFU/ml, 35° C., 18 to 20 hours
Procedure: (§1) Antibacterial activities of the following typical compounds A through E of the present invention represented by formula (I) upon various bacteria were determined by measuring the minimum inhibitory concentrations (MIC) in accordance with the known serial dilution technique. MIC was measured by inoculating 10^6 CFU/ml of each test strain on a Sensitivity Plate Medium N (Nissui Pharmaceutical Co., Ltd.), incubating the plates at 35° C. for 18 to 20 hours and then evaluating the results.

S. aureus 209P JC-1 = conditions: Staphylococcus aureus, 10^6 CFU/ml, 35° C., 18 to 20 hours
Procedure: as §1

P. aeruginosa E-2 = conditions: Pseudomonas aeruginosa, E2, 10^6 CFU/ml, 35° C., 18 to 20 hours
Procedure: as §1

E. hirae ATCC8043 = conditions: Enterococcus hirae, 10^6 CFU/ml, 35° C., 18 to 20 hours
Procedure: as §1

M. morganii 1510/S-1 = conditions: Morganella morganii, 1510/S1, 10^6 CFU/ml, 35° C., 18 to 20 hours
Procedure: as §1

C. freundii GN346/16 = conditions: Citrobacter freundii, 10^6 CFU/ml, 35° C., 18 to 20 hours
Procedure: as §1

E. cloacae G-0008 = conditions: Enterobacter cloacae, G0008, 10^6 CFU/ml, 35° C., 18 to 20 hours
Procedure: as §1

S. epidermidis ATCC14990 = conditions: Staphylococcus epidermidis, 10^6 CFU/ml, 35° C., 18 to 20 hours
Procedure: as §1

P. vulgaris GN76 = conditions: Proteus vulgaris, 10^6 CFU/ml, 35° C., 18 to 20 hours
Procedure: as §1

E. coli NIHJ JC-2 = conditions: Escherichia coli, NIHJJC2, 10^6 CFU/ml, 35° C., 18 to 20 hours
Procedure: as §1

S. marcescens No. 1 = conditions: Serratia marcescens, 10^6 CFU/ml, 35° C., 18 to 20 hours
Procedure: as §1

SMILES	MIC (K. pneumoniae PCI602)	MIC (S. aureus 209P JC-1)	MIC (P. aeruginosa E-2)	MIC (E. hirae ATCC8043)	MIC (M. morganii 1510/S-1)	MIC (C. freundii GN346/16)	MIC (E. cloacae G-0008)	MIC (S. epidermidis ATCC14990)	MIC (P. vulgaris GN76)	MIC (E. coli NIHJ JC-2)	MIC (S. marcescens No. 1)
C[C@H](O/N=C(\C(=O)NC1C(=O)N2C(C(=O)[O-])=C(CSc3nc4c[n+](C)ccc4s3)CSC12)c1csc(N)n1)C(=O)O (stereo partly drawn) [E, 7-[(Z)-2-(2-aminothiazol-4-yl)-2-{(S)-1-carboxyethoxyimino}acetamido]-3-(5-methylthiazolo[4,5-c]pyridinium-2-yl)thiomethyl-3-cephem-4-carboxylate]	0.05 µg/mL (≈ 0.0786 µM)	1.56 µg/mL (≈ 2.45 µM)	1.56 µg/mL (≈ 2.45 µM)	> 100 µg/mL	0.05 µg/mL (≈ 0.0786 µM)	0.39 µg/mL (≈ 0.613 µM)	0.2 µg/mL (≈ 0.315 µM)	1.56 µg/mL (≈ 2.45 µM)	< 0.025 µg/mL	0.2 µg/mL (≈ 0.315 µM)	0.05 µg/mL (≈ 0.0786 µM)
CO/N=C(\C(=O)NC1C(=O)N2C(C(=O)[O-])=C(CSc3nc4c[n+](C)ccc4s3)CSC12)c1csc(N)n1 (stereo not shown) [A, 7-{(Z)-2-(2-aminothiazol-4-yl)-2-methoxyiminoacetamido}-3-(5-methylthiazolo[4,5-c]pyridinium-2-yl)thiomethyl-3-cephem-4-carboxylate]	0.05 µg/mL (≈ 0.0866 µM)	0.2 µg/mL (≈ 0.346 µM)	50 µg/mL (≈ 86.6 µM)	1.56 µg/mL (≈ 2.7 µM)	< 0.025 µg/mL	0.1 µg/mL (≈ 0.173 µM)	0.05 µg/mL (≈ 0.0866 µM)	0.2 µg/mL (≈ 0.346 µM)	0.39 µg/mL (≈ 0.675 µM)	0.05 µg/mL (≈ 0.0866 µM)	0.05 µg/mL (≈ 0.0866 µM)
C[n+]1ccc2sc(SCC3=C(C(=O)[O-])N4C(=O)C(NC(=O)/C(=N\OC(C)(C)C(=O)O)c5csc(N)n5)C4SC3)nc2c1 (stereo not shown) [D, 7-{(Z)-2-(2-aminothiazol-4-yl)-2-(1-carboxy-1-methylethoxyimino)acetamido}-3-(5-methylthiazolo[4,5-c]pyridinium-2-yl)thiomethyl-3-cephem-4-carboxylate]	0.2 µg/mL (≈ 0.308 µM)	3.13 µg/mL (≈ 4.82 µM)	3.13 µg/mL (≈ 4.82 µM)	> 100 µg/mL	0.05 µg/mL (≈ 0.077 µM)	0.39 µg/mL (≈ 0.6 µM)	0.2 µg/mL (≈ 0.308 µM)	3.13 µg/mL (≈ 4.82 µM)	0.1 µg/mL (≈ 0.154 µM)	0.2 µg/mL (≈ 0.308 µM)	0.05 µg/mL (≈ 0.077 µM)
CO/N=C(\C(=O)NC1C(=O)N2C(C(=O)[O-])=C(CSc3nc4c(ccc[n+]4C)s3)CSC12)c1csc(N)n1 (stereo not shown) [B, 7-{(Z)-2-(2-aminothiazol-4-yl)-2-methoxyiminoacetamido}-3-(4-methylthiazolo[4,5-b]pyridinium-2-yl)thiomethyl-3-cephem-4-carboxylate]	0.05 µg/mL (≈ 0.0866 µM)	0.2 µg/mL (≈ 0.346 µM)	25 µg/mL (≈ 43.3 µM)	50 µg/mL (≈ 86.6 µM)	0.1 µg/mL (≈ 0.173 µM)	0.1 µg/mL (≈ 0.173 µM)	0.2 µg/mL (≈ 0.346 µM)	0.2 µg/mL (≈ 0.346 µM)	0.2 µg/mL (≈ 0.346 µM)	0.1 µg/mL (≈ 0.173 µM)	0.2 µg/mL (≈ 0.346 µM)
C[n+]1ccc2sc(SCC3=C(C(=O)[O-])N4C(=O)C(NC(=O)/C(=N\OCC(=O)O)c5csc(N)n5)C4SC3)nc2c1 (stereo not shown) [C, 7-{(Z)-2-(2-aminothiazol-4-yl)-2-carboxymethoxyiminoacetamido}-3-(5-methylthiazolo[4,5-c]pyridinium-2-yl)thiomethyl-3-cephem-4-carboxylate]	< 0.025 µg/mL	3.13 µg/mL (≈ 5.03 µM)	12.5 µg/mL (≈ 20.1 µM)	100 µg/mL (≈ 161 µM)	< 0.025 µg/mL	0.2 µg/mL (≈ 0.322 µM)	0.05 µg/mL (≈ 0.0804 µM)	3.13 µg/mL (≈ 5.03 µM)	< 0.025 µg/mL	0.05 µg/mL (≈ 0.0804 µM)	< 0.025 µg/mL
